Experimental data: PubChem BioAssay (NCI)
Where “and” joins values, the source holds several entries; their conditions need not be identical. Equal values may be shown once.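 Results reflect a 48-hour exposure of cells in 96-well plates to compound at five concentrations. GI50 is the concentration that inhibits growth by half. TGI: concentration producing complete growth inhibition.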

What was measured:
Experiment in all cases: growth of human tumour cells (NCI), 48 h
LOX IMVI melanoma = tested on: LOX IMVI melanoma
EKVX NSCLC = tested on: EKVX NSCLC
RPMI-8226 leukemia = tested on: RPMI-8226 leukemia
CCRF-CEM leukemia = tested on: CCRF-CEM leukemia
SF-268 CNS = tested on: SF-268 CNS
HCT-116 colon = tested on: HCT-116 colon
MALME-3M melanoma = tested on: MALME-3M melanoma
A498 renal = tested on: A498 renal
RXF 393 renal = tested on: RXF 393 renal
SK-OV-3 ovarian = tested on: SK-OV-3 ovarian

Row | SMILES | GI50 (LOX IMVI melanoma) | TGI (LOX IMVI melanoma) | GI50 (EKVX NSCLC) | TGI (EKVX NSCLC) | GI50 (RPMI-8226 leukemia) [µM] | TGI (RPMI-8226 leukemia) | GI50 (CCRF-CEM leukemia) [µM] | TGI (CCRF-CEM leukemia) | GI50 (SF-268 CNS) | TGI (SF-268 CNS) | GI50 (HCT-116 colon) [µM] | TGI (HCT-116 colon) | GI50 (MALME-3M melanoma) [µM] | TGI (MALME-3M melanoma) | GI50 (A498 renal) [µM] | TGI (A498 renal) | GI50 (RXF 393 renal) | TGI (RXF 393 renal) | GI50 (SK-OV-3 ovarian) | TGI (SK-OV-3 ovarian)
1 | COc1ccc(/C(C)=C(\c2ccc(OCCN3CCCCCC3)cc2)c2ccc(OC(=O)C3CCCCC3)cc2)cc1 | 0.319 µM | 0.788 µM | 1.39 µM | 5.48 µM | 0.55 | 2.23 µM | 0.75 | 9.39 µM | 1.16 µM | 4.33 µM | 0.638 | 2.47 µM | 0.517 | 2.14 µM | 1.35 | 3.45 µM | 0.704 µM | 2.6 µM | 1.7 µM | 3.96 µM
2 | OC(c1cc(-c2ccc(C(F)(F)F)cc2)nc(C(F)(F)F)c1)C1CCCCN1 (stereo not drawn) | – | 3.13 µM and 3.07 µM | 1.96 µM and 4.22 µM | 4.3 µM and 11.6 µM | 0.418 | 2.04 µM and 5.07 µM | 1.62 | 3.53 µM and 4.81 µM | 1.85 µM and 3.76 µM | 3.46 µM and 13.1 µM | 1.53 | 2.87 µM and 3.47 µM | – | 3.28 µM and 3.38 µM | 1.47 | 2.82 µM and 6.07 µM | – | 3.15 µM | – | 4.75 µM and 5.99 µM
3 | Cc1cc2c(c(C(N)=O)c1C)-c1ccccc1C2=O | – | > 100 µM | – | > 100 µM | – | > 100 µM | – | > 100 µM | – | > 100 µM | – | > 100 µM | – | > 100 µM | – | > 100 µM | – | > 100 µM | – | > 100 µM
4 | O=C1NCCS(=O)(=O)N[C@@H](CC2=CC=CCC2)C(=O)N2CCCC12 (stereo partly drawn) | – | > 100 µM | – | > 100 µM | – | > 100 µM | – | > 100 µM | – | > 100 µM | – | > 100 µM | – | > 100 µM | – | > 100 µM | – | > 100 µM | – | > 100 µM
5 | NNCCc1ccc(NC(=O)CCCc2ccc(C(=O)Nc3ccccc3N)cc2)cc1 | 15.9 µM | > 100 µM | 51.1 µM | > 100 µM | 3.18 | > 100 µM | 3.35 | > 100 µM | 5.97 µM | > 100 µM | 2.75 | > 100 µM | 2.71 | 50.8 µM | 6.54 | 28.5 µM | 12.6 µM | 53.9 µM | 18.2 µM | > 100 µM
6 | CN(C)C(=S)SSC(=S)N(C)C | 14.9 µM and 5.4 µM and 22.7 µM | 28.8 µM and 21.4 µM and > 55 µM | 22 µM and > 73.4 µM and 18.6 µM | 96.3 µM and > 100 µM and 35.1 µM | – | 49.1 µM and 16.1 µM and 58.9 µM | – | 37.2 µM and 5.68 µM | 15 µM and 42.7 µM and 16.1 µM | 29 µM and > 100 µM and 32.8 µM | – | 28.9 µM and 30.4 µM and > 55.9 µM | 16.3 | 34.7 µM and 50.1 µM and 31 µM | 15.1 | > 100 µM | 16.5 µM and 38.6 µM and 16.6 µM | 31 µM and > 62.6 µM and 32.6 µM | 37.1 µM and > 100 µM and 31.9 µM | > 100 µM
7 | COc1ccc(-c2nccn2-c2ccc(OC)cc2)cc1 | 32.2 µM | 97.9 µM | 41.5 µM | > 100 µM | 13.4 | 36.6 µM | 23.5 | 76.7 µM | 22.9 µM | 74.4 µM | 16.4 | 44.4 µM | 15.9 | 50.3 µM | 14.4 | 55.9 µM | 17.9 µM | > 80.5 µM | 22.8 µM | 93.6 µM
8 | COc1c(C)n(CCO)ccc1=O | – | > 100 µM | – | > 100 µM | – | > 100 µM | – | > 100 µM | – | > 100 µM | – | > 100 µM | – | > 100 µM | – | > 100 µM | – | > 100 µM | – | > 100 µM
9 | CCOC(=O)NC(=O)c1cn(C(CC)COC(=O)NCCCCCCNC(=O)OCC(CC)n2cc(C(=O)NC(=O)OCC)c(=O)[nH]c2=O)c(=O)[nH]c1=O (stereo not drawn) | – | > 100 µM | – | > 100 µM | – | > 100 µM | – | > 100 µM | – | > 100 µM | – | > 100 µM | – | > 100 µM | – | > 100 µM | – | > 100 µM | – | > 100 µM
10 | Nc1nc(-c2ccc(Cl)c([N+](=O)[O-])c2)cs1 | – | > 100 µM | – | > 100 µM | – | > 100 µM | – | > 100 µM | – | > 100 µM | – | > 100 µM | – | > 100 µM | – | 92.1 µM | – | 90.1 µM | – | > 100 µM
11 | C#CCOc1cccc(Nc2ncnc3c(NC(=O)C=C)cccc23)c1 | 15.7 µM | 46.4 µM | 28.3 µM | > 100 µM | 8.46 | 47.2 µM | 16.5 | > 100 µM | 27.7 µM | > 100 µM | 17 | 85.9 µM | 18.5 | 52 µM | 24.4 | 64.4 µM | 13.3 µM | 39.7 µM | 38.2 µM | > 100 µM
12 | O=c1[nH]cnc(NC2C=C(CO)C(O)C2O)c1[N+](=O)[O-] (stereo not drawn) | – | > 59.6 µM | – | > 100 µM | – | > 71.3 µM | – | > 100 µM | – | > 100 µM | – | > 53.1 µM | – | > 100 µM | – | > 100 µM | – | > 100 µM | – | > 100 µM
13 | CCN(CC)CCCCCCNc1cccc2cc(Br)cnc12 | 2.64 µM | 8.07 µM | 10.2 µM | 25.1 µM | 3.81 | 15.5 µM | 3.13 | 11.2 µM | 10.9 µM | 27.5 µM | 3.39 | 14.2 µM | 2.46 | 5.13 µM | 4.28 | 21.3 µM | 4.52 µM | 15.1 µM | 13.2 µM | 26.8 µM
14 | CC(C(=O)c1ccc(Cl)cc1)/C(=N/NC(=O)NN)C(=O)Nc1cccc(C(F)(F)F)c1 (stereo not drawn) | – | > 100 µM | – | > 100 µM | – | > 100 µM | – | > 100 µM | – | > 100 µM | – | > 100 µM | – | > 100 µM | – | > 100 µM | – | > 100 µM | – | > 100 µM
15 | Nc1c(-c2ccccc2-c2c(N)[n+]([O-])c3ccccc3[n+]2[O-])[n+]([O-])c2ccccc2[n+]1[O-] | – | > 100 µM | – | 57.1 µM | – | 63.4 µM | – | > 28.4 µM | – | > 100 µM | – | 74.6 µM | – | > 100 µM | – | 71.4 µM | – | > 100 µM | – | > 100 µM
16 | O=C(c1ccco1)c1c(C(F)(F)F)n([O-])c2ccc(C(F)(F)F)cc2[n+]1=O | 0.127 µM | 0.257 µM | 0.727 µM | 2.07 µM | 0.383 | 1.68 µM | 0.207 | 0.793 µM | 0.266 µM | 0.674 µM | 0.147 | 0.279 µM | 0.595 | 1.47 µM | 1.41 | 2.76 µM | 0.179 µM | 0.512 µM | 1.12 µM | 2.48 µM
17 | CCCc1cc(=O)n2c(C(=O)Nc3ccc(Cl)cc3C)c(C(=O)Nc3ccc(F)cc3)sc2n1 | 1.6 µM | 19.9 µM | 21.3 µM | > 150 µM | 2.7 | 6.88 µM | 16.4 | 103 µM | 6.62 µM | 24.9 µM | 2.53 | > 150 µM | 5.12 | 20.7 µM | 29.2 | 99.8 µM | 1.17 µM | 4.46 µM | 12.7 µM | 52.8 µM
18 | CN(C(=O)c1ccc([N+](=O)[O-])cc1)c1ccccc1 | – | > 100 µM | – | > 100 µM | – | > 100 µM | – | > 100 µM | – | > 100 µM | – | > 100 µM | – | > 100 µM | – | > 100 µM | – | > 100 µM | – | > 100 µM
19 | Nc1cc(Br)c(-c2nnc(CCC(=O)c3nc4ccccc4[nH]3)o2)c(Br)c1 | 3.25 µM | 46.4 µM | 23.1 µM | > 100 µM | 4.21 | > 100 µM | 3.81 | > 100 µM | 5.14 µM | 81.5 µM | 8.26 | > 100 µM | 2.06 | 17.2 µM | 0.662 | 10.5 µM | 13 µM | 58.7 µM | 22.3 µM | 80.5 µM
20 | CCOP(=O)(OCC)C(C(=O)OC)C(=O)C(=O)Nc1ccc(Cl)cc1Cl (stereo not drawn) | – | > 100 µM | – | > 100 µM | – | > 100 µM | – | > 100 µM | – | > 100 µM | – | > 100 µM | – | > 100 µM | – | > 100 µM | – | > 100 µM | – | > 100 µM
21 | O=C1Nc2ccccc2/C1=C1\CCc2cc(O)ccc21 | 6.5 µM | > 25 µM | 4.17 µM | > 25 µM | 9.71 | > 25 µM | 7.19 | > 25 µM | 10.1 µM | > 25 µM | 8.79 | > 25 µM | 8.11 | > 25 µM | 5.65 | 17.8 µM | 9.85 µM | > 25 µM | 8.5 µM | > 25 µM
